PubChem BioAssay AID330 (DTP/NCI, 2004)
“And” between values parts separate entries of the source, which are not always exact repeats. Identical values can stand only once. Inconclusive results and toxic doses are left out.

System: P388 leukemia ip, CD2F1 mice, survival T/C
Assay: NCI In Vivo Anticancer Drug Screen. Data for tumor model P388 Leukemia (intraperitoneal) in CD2F1 (CDF1) mice
Settings: endpoint: median survival time, higher = longer survival
Method in brief: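 Mice carrying the transplanted tumor received test compound or vehicle. Survival was recorded in each group, and the value is the treated-group measurement divided by that of the vehicle-treated control group.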

[1] = dose: 12.5 mg/kg/injection, schedule: Q01DX005 (ip), vehicle: saline
[2] = dose: 25.0 mg/kg/injection, schedule: Q01DX005 (ip), vehicle: saline
[3] = dose: 50.0 mg/kg/injection, schedule: Q01DX005 (ip), vehicle: saline
[4] = dose: 50.0 mg/kg/injection, schedule: Q01DX005 (ip), vehicle: saline with Tween-80
[5] = dose: 100.0 mg/kg/injection, schedule: Q01DX005 (ip), vehicle: saline with Tween-80
[6] = dose: 200.0 mg/kg/injection, schedule: Q01DX005 (ip), vehicle: saline with Tween-80
[7] = dose: 60.0 mg/kg/injection, schedule: Q01DX005 (ip), vehicle: saline with Tween-80
[8] = dose: 120.0 mg/kg/injection, schedule: Q01DX005 (ip), vehicle: saline with Tween-80
[9] = dose: 50.0 mg/kg/injection, schedule: Q01DX009 (ip), vehicle: Klucel (hydroxypropylcellulose) (HPC)
[10] = dose: 100.0 mg/kg/injection, schedule: Q01DX009 (ip), vehicle: Klucel (hydroxypropylcellulose) (HPC)
[11] = dose: 240.0 mg/kg/injection, schedule: Q01DX005 (ip), vehicle: saline with Tween-80
[12] = dose: 25.0 mg/kg/injection, schedule: Q01DX005 (ip), vehicle: saline with Tween-80
[13] = dose: 25.0 mg/kg/injection, schedule: Q01DX009 (ip), vehicle: Klucel (hydroxypropylcellulose) (HPC)
[14] = dose: 200.0 mg/kg/injection, schedule: Q01DX009 (ip), vehicle: Klucel (hydroxypropylcellulose) (HPC)

## Cc1cc[n+](-c2c3c(nc4ccccc24)-c2ccccc2C(C)(C)C3)cc1
[1]
  T/C: 100 % of control
[2]
  T/C: 91 % of control
[3]
  T/C: 94 % of control
dose: 100.0 mg/kg/injection, schedule: Q01DX005 (ip), vehicle: saline
  T/C: 106 % of control

## Nc1nc(N)c2c(n1)CCC(C(=O)Nc1ccc(Cl)cc1)C2 (stereo unspecified)
[4]
  T/C: 94 % of control
[5]
  T/C: 96 % of control
[6]
  T/C: 96 % of control

## [Cl][Pt+2][Cl].[NH-]C(c1ccccc1)C([NH-])c1ccccc1 (stereo unspecified)
dose: 1.56 mg/kg/injection, schedule: Q04DX002 (ip), vehicle: saline with Tween-80
  T/C: 112 % of control
dose: 3.12 mg/kg/injection, schedule: Q04DX002 (ip), vehicle: saline with Tween-80
  T/C: 103 % of control
dose: 3.13 mg/kg/injection, schedule: Q04DX002 (ip), vehicle: saline with Tween-80
  T/C: 111 % of control
dose: 6.25 mg/kg/injection, schedule: Q04DX002 (ip), vehicle: saline with Tween-80
  T/C: 117 % of control [middle of 4 runs]

## O=c1[nH]cnc2c1ncn2C1SC(CO)C(O)C1O (stereo unspecified)
dose: 25.0 mg/kg/injection, schedule: Q01DX005 (ip), vehicle: Klucel (hydroxypropylcellulose) (HPC)
  T/C: 100 % of control
dose: 50.0 mg/kg/injection, schedule: Q01DX005 (ip), vehicle: Klucel (hydroxypropylcellulose) (HPC)
  T/C: 108 % of control
dose: 100.0 mg/kg/injection, schedule: Q01DX005 (ip), vehicle: Klucel (hydroxypropylcellulose) (HPC)
  T/C: 101 % of control
dose: 200.0 mg/kg/injection, schedule: Q01DX005 (ip), vehicle: Klucel (hydroxypropylcellulose) (HPC)
  T/C: 101 % of control
dose: 400.0 mg/kg/injection, schedule: Q01DX005 (ip), vehicle: Klucel (hydroxypropylcellulose) (HPC)
  T/C: 92 % of control

## COc1ccc(C(CC(=O)NCCCl)CC(=O)NCCCl)cc1
dose: 100.0 mg/kg/injection, schedule: Q01DX001 (ip), vehicle: suspension in saline
  T/C: 101 % of control
dose: 200.0 mg/kg/injection, schedule: Q01DX001 (ip), vehicle: suspension in saline
  T/C: 100 % of control

## CN(C)CC(CN(C)C)C(=O)c1ccc(Cl)c(Cl)c1
[1]
  T/C: 108 % of control
[2]
  T/C: 105 % of control
[3]
  T/C: 100 % of control and 104 % of control

## CCCCCCC(=O)/C=C/c1cccc(OCOCC)c1
dose: 50.0 mg/kg/injection, schedule: Q01DX009 (ip), vehicle: saline with Tween-80
  T/C: 111 % of control and 113 % of control and 122 % of control
dose: 100.0 mg/kg/injection, schedule: Q01DX009 (ip), vehicle: saline with Tween-80
  T/C: 115 % of control and 122 % of control
dose: 200.0 mg/kg/injection, schedule: Q01DX009 (ip), vehicle: saline with Tween-80
  T/C: 108 % of control and 119 % of control

## CN(C)CCC(=O)c1ccc2c(c1)OCO2
dose: 60.0 mg/kg/injection, schedule: Q01DX005 (ip), vehicle: saline
  T/C: 100 % of control
dose: 120.0 mg/kg/injection, schedule: Q01DX005 (ip), vehicle: saline
  T/C: 92 % of control

## OC(Cc1ccccc1)c1ccccc1 (stereo unspecified)
dose: 31.25 mg/kg/injection, schedule: Q01DX009 (ip), vehicle: saline + Tween-80 + alcohol
  T/C: 107 % of control
dose: 62.5 mg/kg/injection, schedule: Q01DX009 (ip), vehicle: saline + Tween-80 + alcohol
  T/C: 100 % of control
dose: 100.0 mg/kg/injection, schedule: Q01DX009 (ip), vehicle: suspension in saline
  T/C: 104 % of control
dose: 125.0 mg/kg/injection, schedule: Q01DX009 (ip), vehicle: saline + Tween-80 + alcohol
  T/C: 98 % of control
dose: 200.0 mg/kg/injection, schedule: Q01DX009 (ip), vehicle: suspension in saline
  T/C: 98 % of control
dose: 250.0 mg/kg/injection, schedule: Q01DX009 (ip), vehicle: saline + Tween-80 + alcohol
  T/C: 102 % of control
dose: 400.0 mg/kg/injection, schedule: Q01DX009 (ip), vehicle: suspension in saline
  T/C: 98 % of control

## CCC(C)/[N+]([O-])=N\O (stereo unspecified)
dose: 3.0 mg/kg/injection, schedule: Q01DX005 (ip), vehicle: Klucel (hydroxypropylcellulose) (HPC)
  T/C: 98 % of control
dose: 6.0 mg/kg/injection, schedule: Q01DX005 (ip), vehicle: Klucel (hydroxypropylcellulose) (HPC)
  T/C: 91 % of control
dose: 12.0 mg/kg/injection, schedule: Q01DX005 (ip), vehicle: Klucel (hydroxypropylcellulose) (HPC)
  T/C: 100 % of control
dose: 24.0 mg/kg/injection, schedule: Q01DX005 (ip), vehicle: Klucel (hydroxypropylcellulose) (HPC)
  T/C: 97 % of control

## COC1=C2C[C@@H](C)C[C@@H](OC)[C@@H](O)[C@H](C)/C=C(\C)[C@@H](OC(N)=O)[C@H](OC)/C=C\C=C(/C)C(=O)NC(=CC1=O)C2=O
dose: 0.75 mg/kg/injection, schedule: Q01DX009 (ip), vehicle: saline with Tween-80
  T/C: 114 % of control
dose: 1.5 mg/kg/injection, schedule: Q01DX009 (ip), vehicle: saline with Tween-80
  T/C: 115 % of control

## CC(=O)c1c(C)[nH]c(-c2ccccc2)c1NS(=O)(=O)c1ccc(N)cc1
[7]
  T/C: 98 % of control
[8]
  T/C: 91 % of control

## COc1cc(OC)c(NC(=O)CC2SC(N)=NC2=O)cc1Cl (stereo unspecified)
[9]
  T/C: 97 % of control
[10]
  T/C: 97 % of control

## O=c1c(Cc2c[nH]c3ccccc23)coc2ccccc12
[7]
  T/C: 100 % of control
[8]
  T/C: 90 % of control
[11]
  T/C: 89 % of control

## O=C(/C(=C/c1ccccc1)c1ccc(Cl)cc1)c1ccccc1
dose: 100.0 mg/kg/injection, schedule: Q04DX003 (ip), vehicle: saline with Tween-80
  T/C: 116 % of control
dose: 200.0 mg/kg/injection, schedule: Q04DX003 (ip), vehicle: saline with Tween-80
  T/C: 100 % of control
dose: 400.0 mg/kg/injection, schedule: Q04DX003 (ip), vehicle: saline with Tween-80
  T/C: 103 % of control

## COC(C(=O)C(O)C(C)O)C1Cc2cc3cc(OC4CC(OC(C)=O)C(OC5CC(O)C(OC)C(C)O5)C(C)O4)cc(O)c3c(O)c2C(=O)C1OC1CC(OC2CC(OC3CC(C)(O)C(OC(=O)C(C)C)C(C)O3)C(O)C(C)O2)C(O)C(C)O1 (stereo unspecified)
dose: 0.02 mg/kg/injection, schedule: Q01DX010 (ip), vehicle: saline
  T/C: 100 % of control
dose: 0.05 mg/kg/injection, schedule: Q01DX010 (ip), vehicle: saline
  T/C: 100 % of control
dose: 0.2 mg/kg/injection, schedule: Q01DX009 (ip), vehicle: saline
  T/C: 183 % of control
dose: 0.4 mg/kg/injection, schedule: Q01DX009 (ip), vehicle: saline
  T/C: 122 % of control
dose: 3.2 mg/kg/injection, schedule: Q01DX010 (ip), vehicle: saline
  T/C: 90 % of control

## COc1cc(Cc2cnc(N)nc2N)cc(OC)c1OC
[4]
  T/C: 100 % of control
[5]
  T/C: 99 % of control
[6]
  T/C: 100 % of control
dose: 400.0 mg/kg/injection, schedule: Q01DX005 (ip), vehicle: saline with Tween-80
  T/C: 100 % of control

## O=C1c2ccccc2CCC12OC2c1ccc([N+](=O)[O-])cc1 (stereo unspecified)
[12]
  T/C: 100 % of control
[4]
  T/C: 106 % of control
[5]
  T/C: 110 % of control
[6]
  T/C: 106 % of control

## COc1ccc2[nH]c(=O)c(C#N)c(C)c2c1
dose: 12.5 mg/kg/injection, schedule: Q01DX005 (ip), vehicle: saline with Tween-80
  T/C: 95 % of control
[12]
  T/C: 91 % of control
[4]
  T/C: 104 % of control and 91 % of control

## COc1ccc(CC2=NCCc3cc(OC)c(OC)cc32)cc1OC
dose: 22.0 mg/kg/injection, schedule: Q01DX009 (ip), vehicle: saline
  T/C: 104 % of control
dose: 33.0 mg/kg/injection, schedule: Q01DX009 (ip), vehicle: saline
  T/C: 103 % of control
dose: 50.0 mg/kg/injection, schedule: Q01DX009 (ip), vehicle: saline
  T/C: 103 % of control
dose: 75.0 mg/kg/injection, schedule: Q01DX009 (ip), vehicle: saline
  T/C: 102 % of control

## C1=C(c2ccccc2)[P+](c2ccccc2)(c2ccccc2)C=C(c2ccccc2)[P+]1(c1ccccc1)c1ccccc1
dose: 16.5 mg/kg/injection, schedule: Q04DX003 (ip), vehicle: saline
  T/C: 109 % of control
dose: 25.0 mg/kg/injection, schedule: Q04DX003 (ip), vehicle: saline
  T/C: 109 % of control
dose: 37.5 mg/kg/injection, schedule: Q04DX003 (ip), vehicle: saline
  T/C: 109 % of control

## Nc1nc(N)sc(=S)n1
[13]
  T/C: 100 % of control
[9]
  T/C: 107 % of control
[10]
  T/C: 94 % of control
[14]
  T/C: 101 % of control

## O=C(c1ccccc1)C1OC1C(=O)c1ccccc1 (stereo unspecified)
[9]
  T/C: 95 % of control
[10]
  T/C: 100 % of control
[14]
  T/C: 102 % of control

## COc1ccc2c(O)c(S(=O)(=O)c3ccc(Cl)cc3)c(=O)oc2c1
[7]
  T/C: 102 % of control
[8]
  T/C: 112 % of control
[11]
  T/C: 102 % of control

## O=C(C[n+]1ccc2ccccc2c1)c1ccc(-c2ccccc2)cc1
dose: 12.5 mg/kg/injection, schedule: Q01DX009 (ip), vehicle: Klucel (hydroxypropylcellulose) (HPC)
  T/C: 118 % of control
[13]
  T/C: 98 % of control and 116 % of control
[9]
  T/C: 101 % of control and 115 % of control
[10]
  T/C: 101 % of control and 122 % of control
